The target of experiment [1] is T1, chABCD1 (chimeric ABCD1) (Homo sapiens, UniProt P33897).
T1 construct: single polypeptide: N-terminal FLAG tag, PMP-4 residues 1-65 replacing human ABCD1 residues 1-63, then human ABCD1 64-745; HEK293F; homodimer; LMNG/CHS for assays, digitonin for cryo-EM; with PMP-4 (peroxisomal membrane protein related, ABCD1 homolog, Caenorhabditis elegans; N-terminal segment fused to the target chain)
T1 sequence (P33897 64-745): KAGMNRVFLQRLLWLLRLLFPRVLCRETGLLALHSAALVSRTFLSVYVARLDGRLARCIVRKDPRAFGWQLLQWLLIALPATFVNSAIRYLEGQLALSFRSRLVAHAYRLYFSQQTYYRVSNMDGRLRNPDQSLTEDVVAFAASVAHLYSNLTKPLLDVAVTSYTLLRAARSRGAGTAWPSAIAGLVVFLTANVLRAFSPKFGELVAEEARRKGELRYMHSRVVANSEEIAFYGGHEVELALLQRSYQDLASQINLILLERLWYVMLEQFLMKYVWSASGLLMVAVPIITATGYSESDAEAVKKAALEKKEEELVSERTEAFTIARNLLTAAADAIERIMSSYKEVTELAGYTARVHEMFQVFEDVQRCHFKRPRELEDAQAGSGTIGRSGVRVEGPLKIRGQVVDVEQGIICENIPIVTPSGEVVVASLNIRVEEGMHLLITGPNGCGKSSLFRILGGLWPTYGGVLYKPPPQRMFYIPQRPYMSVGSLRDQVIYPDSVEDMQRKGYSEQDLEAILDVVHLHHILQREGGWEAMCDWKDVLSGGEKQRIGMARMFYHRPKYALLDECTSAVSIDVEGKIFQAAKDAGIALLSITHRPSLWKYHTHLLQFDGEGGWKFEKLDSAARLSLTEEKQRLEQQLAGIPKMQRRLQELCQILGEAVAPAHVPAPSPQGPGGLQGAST
In words: ATPase assay (colorimetric Pi release). It counts as biochemical. The following applies: varying ATP, with or without C22:0-CoA, 2 mM MgCl2, LMNG + CHS, pH 7.5, 37 °C; Michaelis-Menten fit.

Experiment [2] addresses T1, chABCD1 (chimeric ABCD1). Put plainly: substrate-stimulated ATPase assay (colorimetric Pi release). It counts as biochemical.
Experiment [3] addresses chimeric ABCD1, C-terminal helix truncated variant (ΔGlu694-Thr745) (Caenorhabditis elegans | human) (UniProt O45730).

The term EC50 denotes the midpoint of the concentration-response curve.

For `Nc1ncnc2c1ncn2[C@@H]1O[C@H](COP(=O)(O)OP(=O)(O)OP(=O)(O)O)[C@@H](O)[C@H]1O` [ATP], the Km result in experiment [1] is listed as “The data points were fitted with a Michaelis-Menten equation”.

For `CCCCCCCCCCCCCCCCCCCCCCCC(=O)SCCNC(=O)CCNC(=O)[C@H](O)C(C)(C)COP(=O)(O)OP(=O)(O)OC[C@H]1O[C@@H](n2cnc3c(N)ncnc32)[C@H](O)[C@@H]1OP(=O)(O)O` [C24:0-CoA], the EC50 in experiment [2] is roughly 2000 nM.

As to `CCCCCCCCCCCCCCCCCCCCCCCCCC(=O)SCCNC(=O)CCNC(=O)[C@H](O)C(C)(C)COP(=O)(O)OP(=O)(O)OC[C@H]1O[C@@H](n2cnc3c(N)ncnc32)[C@H](O)[C@@H]1OP(=O)(O)O` [C26:0-CoA], the EC50 in experiment [2] was roughly 2000 nM.

As to “chimeric ABCD1, C-terminal helix truncated variant (ΔGlu694-Thr745) (from UniProt O45730 1-65; P33897 64-693)”, the Vmax of C22:0-CoA-stimulated ATPase activity (LMNG + CHS, 2 mM ATP) (mol Pi/min/mol protein) in experiment [3] is 17.5.

The record behind these values is article PMC9177597, “Structural basis of substrate recognition and translocation by human very long-chain fatty acid transporter ABCD1” (Nature Communications, 2022).
